Results from patent publication US20150274719A1, “AMINO-SUBSTITUTED IMIDAZO[1,2-A]PYRIDINECARBOXAMIDES AND THEIR USE” (BAYER PHARMA AKTIENGESELLSCHAFT, priority 2012, published 2015).

Biological target: T1, recombinant guanylate cyclase reporter cell line (Rattus norvegicus, UniProt P19686+P20595)
T1 construct: expressed in transfected cells; host or cells: recombinant reporter cell line
T1 sequence (P19686 1-690): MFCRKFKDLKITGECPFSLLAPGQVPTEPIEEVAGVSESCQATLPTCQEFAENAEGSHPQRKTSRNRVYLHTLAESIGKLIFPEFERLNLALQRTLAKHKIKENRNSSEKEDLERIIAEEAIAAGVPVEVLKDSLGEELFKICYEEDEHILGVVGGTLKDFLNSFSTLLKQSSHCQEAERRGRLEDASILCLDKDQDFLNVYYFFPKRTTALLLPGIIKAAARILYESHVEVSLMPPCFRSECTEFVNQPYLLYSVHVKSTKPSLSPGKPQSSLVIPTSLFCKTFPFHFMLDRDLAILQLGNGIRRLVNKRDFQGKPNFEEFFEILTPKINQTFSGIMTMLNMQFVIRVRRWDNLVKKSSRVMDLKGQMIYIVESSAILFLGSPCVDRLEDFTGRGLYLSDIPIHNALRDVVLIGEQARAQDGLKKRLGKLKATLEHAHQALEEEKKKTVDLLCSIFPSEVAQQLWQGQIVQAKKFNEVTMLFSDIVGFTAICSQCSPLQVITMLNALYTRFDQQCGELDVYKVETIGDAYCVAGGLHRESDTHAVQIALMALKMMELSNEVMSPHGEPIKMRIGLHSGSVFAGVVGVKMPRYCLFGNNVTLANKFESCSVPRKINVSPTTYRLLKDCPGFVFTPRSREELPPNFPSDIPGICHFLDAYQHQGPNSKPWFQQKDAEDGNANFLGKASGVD
T1 sequence (P20595 1-619): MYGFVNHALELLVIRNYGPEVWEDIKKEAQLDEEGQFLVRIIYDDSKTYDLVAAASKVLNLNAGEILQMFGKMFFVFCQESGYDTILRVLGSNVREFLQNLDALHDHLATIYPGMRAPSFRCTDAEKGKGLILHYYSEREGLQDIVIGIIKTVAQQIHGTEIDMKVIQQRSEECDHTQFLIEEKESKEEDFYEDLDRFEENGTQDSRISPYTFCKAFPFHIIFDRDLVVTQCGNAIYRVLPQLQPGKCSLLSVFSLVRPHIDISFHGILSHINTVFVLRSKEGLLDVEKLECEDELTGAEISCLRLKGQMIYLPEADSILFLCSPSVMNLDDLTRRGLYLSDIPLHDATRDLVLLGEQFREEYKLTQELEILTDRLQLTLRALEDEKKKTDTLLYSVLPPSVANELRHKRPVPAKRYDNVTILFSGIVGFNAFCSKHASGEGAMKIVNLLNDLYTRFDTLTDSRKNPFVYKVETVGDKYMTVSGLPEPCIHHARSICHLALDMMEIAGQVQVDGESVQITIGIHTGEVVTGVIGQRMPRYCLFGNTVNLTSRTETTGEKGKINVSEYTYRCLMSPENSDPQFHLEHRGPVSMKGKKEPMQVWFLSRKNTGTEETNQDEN
Assay: Action on recombinant guanylate cyclase reporter cell line
Assay type: cell-based
Details: in some cases mean values from individual determinations
Summary of the method: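 Reported value is the minimal effective concentration (MEC), in some cases a mean of single runs, taken from a recombinant rat guanylate cyclase reporter cell line.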

| Compound | MEC (minimal effective concentration) |
| --- | --- |
| Cc1nc2c(OCc3c(F)cccc3F)cc(Cl)cn2c1C(=O)NCCN1CCC(F)(F)CC1 [Example 151, 6-chloro-8-[(2,6-difluorobenzyl)oxy]-N-[2-(4,4-difluoropiperidin-1-yl)ethyl]-2-methylimidazo[1,2-a]pyridine-3-carboxamide] | 0.10 µM |
| Cc1nc2c(OCc3c(F)cccc3F)cc(Cl)cn2c1C(=O)NCCN1CCN(C(C)C)CC1 [Example 152, 6-chloro-8-[(2,6-difluorobenzyl)oxy]-N-[2-(4-isopropylpiperazin-1-yl)ethyl]-2-methyl-imidazo[1,2-a]pyridine-3-carboxamide] | 1.00 µM |
| Cc1nc2c(OCc3c(F)cccc3F)cc(Cl)cn2c1C(=O)NCCN1CCN(C)CC1 [Example 154, 6-chloro-8-[(2,6-difluorobenzyl)oxy]-2-methyl-N-[2-(4-methylpiperazin-1-yl)ethyl]imidazo[1,2-a]pyridine-3-carboxamide] | 1.00 µM |
| Cc1nc2c(OCc3c(F)cccc3F)cc(Cl)cn2c1C(=O)NCCN1CC(N2CCCC2)C1 [Example 156, 6-chloro-8-[(2,6-difluorobenzyl)oxy]-2-methyl-N-{2-[3-(pyrrolidin-1-yl)azetidin-1-yl]ethyl}-imidazo[1,2-a]pyridine-3-carboxamide] | 3.00 µM |
| Cc1nc2c(OCc3c(F)cccc3F)cccn2c1C(=O)NCCN1CCN(C2CC2)CC1 [Example 168, N-[2-(4-Cyclopropylpiperazin-1-yl)ethyl]-8-[(2,6-difluorobenzyl)oxy]-2-methylimidazo[1,2-a]-pyridine-3-carboxamide] | 1.00 µM |
| Cc1nc2c(OCc3c(F)cccc3F)cccn2c1C(=O)NCCNCC(F)F [Example 169] | 1.65 µM |
| Cc1nc2c(OCc3c(F)cccc3F)cccn2c1C(=O)N[C@H](C)CN1CCOCC1 [Example 170, 8-[(2,6-difluorobenzyl)oxy]-2-methyl-N-[(2R)-1-(morpholin-4-yl)propan-2-yl]imidazo[1,2-a]-pyridine-3-carboxamide] | 3.00 µM |
| Cc1nc2c(OCc3c(F)cccc3F)cccn2c1C(=O)N[C@@H](C)CN1CCOCC1 [Example 171, 8-[(2,6-difluorobenzyl)oxy]-2-methyl-N-[(2S)-1-(morpholin-4-yl)propan-2-yl]imidazo[1,2-a]-pyridine-3-carboxamide] | 1.00 µM |
| Cc1cc(OCc2c(F)cccc2F)c2nc(C)c(C(=O)N[C@@H]3CCCC[C@H]3N)n2c1 [Example 251, ent-N-[(1R,2R)-2-Aminocyclohexyl]-8-[(2,6-difluorobenzyl)oxy]-2,6-dimethylimidazo[1,2-a]-pyridine-3-carboxamide] | 3.00 µM |
| CCC(N)(CC)CNC(=O)c1c(C)nc2c(OCc3c(F)cccc3F)cccn12 [Example 253, N-(2-Amino-2-ethylbutyl)-8-[(2,6-difluorobenzyl)oxy]-2-methylimidazo[1,2-a]pyridine-3-carboxamide] | 0.10 µM |
| CCCC(C)(N)CNC(=O)c1c(C)nc2c(OC(C)c3c(F)cccc3F)cc(C)cn12 (stereo not shown) [Example 257, N-(2-Amino-2-methylpentyl)-8-[1-(2,6-difluorophenyl)ethoxy]-2,6-dimethylimidazo[1,2-a]-pyridine-3-carboxamide] | 1.00 µM |
| CCCC(C)(N)CNC(=O)c1c(C(F)(F)F)nc2c(OCc3c(F)cccc3F)cc(C)cn12 (stereo not drawn) [Example 305, ent-N-(2-amino-2-methylpentyl)-8-[(2,6-difluorobenzyl)oxy]-6-methyl-2-(trifluoromethyl)imidazo[1,2-a]pyridine-3-carboxamide] | 0.10 µM |

The next lines start with the values.

| MEC (minimal effective concentration) | Compound |
| --- | --- |
| 1.00 µM | COCCNCCNC(=O)c1c(C)nc2c(OCc3c(F)cccc3F)cc(Cl)cn12 [Example 153, 6-chloro-8-[(2,6-difluorobenzyl)oxy]-N-{2-[(2-methoxyethyl)amino]ethyl}-2-methylimidazo[1,2-a]pyridine-3-carboxamide] |
| 0.30 µM | Cc1nc2c(OCc3c(F)cccc3F)cc(Cl)cn2c1C(=O)NCCN1C[C@@H](C)O[C@@H](C)C1 [Example 158, 6-chloro-8-[(2,6-difluorobenzyl)oxy]-N-{2-[(2R,6S)-2,6-dimethylmorpholin-4-yl]ethyl}-2-methylimidazo[1,2-a]pyridine-3-carboxamide] |
| 1.00 µM | Cc1cc(OCc2c(F)cccc2F)c2nc(C)c(C(=O)NC3CCCC(N)C3)n2c1 (stereo not shown) [Example 160, N-(3-aminocyclohexyl)-8-[(2,6-difluorobenzyl)oxy]-2,6-dimethylimidazo[1,2-a]-pyridine-3-carboxamide] |
| 3.00 µM | Cc1cc(OCc2c(F)cccc2F)c2nc(C)c(C(=O)NCCN3CC(N4CCCC4)C3)n2c1 [Example 162, 8-[(2,6-difluorobenzyl)oxy]-2,6-dimethyl-N-{2-[3-(pyrrolidin-1-yl)azetidin-1-yl]ethyl}imidazo[1,2-a]pyridine-3-carboxamide] |
| 0.30 µM | Cc1cc(OCc2c(F)cccc2F)c2nc(C)c(C(=O)NCCN3CCC(F)(F)CC3)n2c1 [Example 163, 8-[(2,6-difluorobenzyl)oxy]-N-[2-(4,4-difluoro-piperidin-1-yl)ethyl]-2,6-dimethylimidazo[1,2-a]pyridine-3-carboxamide] |
| 0.10 µM | Cc1cc(OCc2c(F)cccc2F)c2nc(C)c(C(=O)NCCN(CC(F)F)C3CC3)n2c1 [Example 164, N-{2-[cyclopropyl(2,2-difluoroethyl)amino]ethyl}-8-[(2,6-difluorobenzyl)oxy]-2,6-dimethylimidazo[1,2-a]-pyridine-3-carboxamide] |
| 0.10 µM | Cc1cc(OCc2c(F)cccc2F)c2nc(C)c(C(=O)NCC3(N)CCC3)n2c1 [Example 165, N-[(1-aminocyclobutyl)methyl]-8-[(2,6-difluorobenzyl)oxy]-2,6-dimethylimidazo[1,2-a]-pyridine-3-carboxamide] |
| 1.00 µM | Cc1cc(OCc2c(F)cccc2F)c2nc(C)c(C(=O)NCCN3C[C@@H](C)O[C@@H](C)C3)n2c1 [Example 167, 8-[(2,6-difluorobenzyl)oxy]-N-{2-[(2R,6S)-2,6-dimethylmorpholin-4-yl]ethyl}-2,6-dimethyl-imidazo[1,2-a]pyridine-3-carboxamide] |
| 0.30 µM | Cc1cc(OCc2c(F)cccc2F)c2nc(C)c(C(=O)NC[C@@H]3CCCCN3)n2c1 [Example 172, 8-[(2,6-Difluorobenzyl)oxy]-2,6-dimethyl-N-[(2S)-piperidin-2-ylmethyl]imidazo[1,2-a]pyridine-3-carboxamide] |
| 1.00 µM | Cc1cc(OCc2c(F)cccc2F)c2nc(C)c(C(=O)NCC3(N)COC3)n2c1 [Example 216, N-[(3-Aminooxetan-3-yl)methyl]-8-[(2,6-difluorobenzyl)oxy]-2,6-dimethylimidazo[1,2-a]pyridine-3-carboxamide] |
| 0.30 µM | Cc1cc(OCc2c(F)cccc2F)c2nc(C)c(C(=O)NCCNC(C)(C)C)n2c1 [Example 255, N-[2-(tert-Butylamino)ethyl]-8-[(2,6-difluorobenzyl)oxy]-2,6-dimethylimidazo[1,2-a]pyridine-3-carboxamide] |
| 0.065 µM | COC(=O)[C@@H](N)CCCCNC(=O)c1c(C)nc2c(OCc3c(F)cccc3F)cc(C)cn12 [Example 294, Methyl N^6-({8-[(2,6-difluorobenzyl)oxy]-2,6-dimethylimidazo[1,2-a]pyridin-3-yl}carbonyl)-L-lysinate] |
| 0.10 µM | CCCC(C)(N)CNC(=O)c1c(C)nc2c(OCc3c(F)cccc3F)cc(Br)cn12 (stereo not drawn) [Example 306, ent-N-(2-amino-2-methylpentyl)-6-bromo-8-[(2,6-difluorobenzyl)oxy]-2-methylimidazo[1,2-a]pyridine-3-carboxamide] |
